Laboratory results reported in patent publication US4973704A, “Pyrrolyl intermediates in the synthesis of pyrrole analogs of mevalonolactone and derivatives thereof” (Sandoz Pharm. Corp., priority 1989, dated 1990).
Read-outs that look alike come from different tables or passages of the source.

Assays:
HMG-CoA reductase = biological target: T1, HMG-CoA reductase (Rattus norvegicus, UniProt P51639); test: Test A. In Vitro Microsomal Assay of HMG-CoA Reductase Inhibition; assay type: biochemical
T1 construct: from tissue; host or cells: microsomes (printed)
T1 sequence (P51639 1-887): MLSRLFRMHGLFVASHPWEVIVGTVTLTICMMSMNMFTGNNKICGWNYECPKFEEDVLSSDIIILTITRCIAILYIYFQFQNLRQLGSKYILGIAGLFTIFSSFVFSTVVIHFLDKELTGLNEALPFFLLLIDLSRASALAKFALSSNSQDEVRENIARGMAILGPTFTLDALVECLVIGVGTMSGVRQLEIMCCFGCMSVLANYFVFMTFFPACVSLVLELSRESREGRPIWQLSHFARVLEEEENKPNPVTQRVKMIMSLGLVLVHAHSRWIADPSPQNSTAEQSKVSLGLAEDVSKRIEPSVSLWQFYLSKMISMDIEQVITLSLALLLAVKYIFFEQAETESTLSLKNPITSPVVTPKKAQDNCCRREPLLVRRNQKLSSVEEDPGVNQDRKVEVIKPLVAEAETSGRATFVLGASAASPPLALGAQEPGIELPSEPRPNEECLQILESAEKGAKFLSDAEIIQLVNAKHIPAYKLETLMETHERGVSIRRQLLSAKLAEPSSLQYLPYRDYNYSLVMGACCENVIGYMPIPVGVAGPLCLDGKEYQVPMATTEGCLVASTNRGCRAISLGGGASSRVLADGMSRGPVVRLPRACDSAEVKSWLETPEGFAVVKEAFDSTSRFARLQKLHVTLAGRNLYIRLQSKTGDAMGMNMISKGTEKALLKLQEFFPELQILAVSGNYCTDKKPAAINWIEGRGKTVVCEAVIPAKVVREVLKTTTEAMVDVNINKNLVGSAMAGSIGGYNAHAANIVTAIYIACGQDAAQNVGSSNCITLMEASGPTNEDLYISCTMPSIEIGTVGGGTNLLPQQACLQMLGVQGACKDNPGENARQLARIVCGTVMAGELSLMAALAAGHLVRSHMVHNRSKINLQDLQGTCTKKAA
Protocol: Test A. In Vitro Microsomal Assay of HMG-CoA Reductase Inhibition:
This test is carried out precisely as described in column 53 of U.S. Pat. No. 4,613,610 and on page 30 of World (PCT) Published Patent Application No. 84/02131, both of which are hereby incorporated by reference as if set forth herein in their entirety. The concentration of the test substance (compound of Formula I) in the assay system is 0.0005-2,000 μmolar. The obtained IC50 is the concentration of the test substance in the assay system observed or calculated to produce a 50% inhibition of HMG-CoA reductase activity.

[1] = test system: 3β-hydroxysterol synthesis; test: Test B. In Vivo Cholesterol Biosynthesis Inhibition Test; conditions: Rattus norvegicus, po; rats, orally administered; read-out: ED50 (dose producing 50% inhibition of 3β-hydroxysterol synthesis)
Protocol: Test B. In Vivo Cholesterol Biosynthesis Inhibition Test:
In this test the rats are orally administered the test substance (compound of Formula I) at a dose of 0.1-200 mg/kg. body weight. The obtained ED50 is the dose of the test substance observed or calculated to produce a 50% inhibition of 3β-hydroxysterol synthesis.

[2] = in vitro microsomal assay, read-out: IC50 (concentration producing 50% inhibition of HMG-CoA reductase activity)

IC50 (HMG-CoA reductase; [2]) [nM] | Compound | ED50 [1] [mg/kg] | IC50 (HMG-CoA reductase) [nM]
14 | CC(C)c1cc(-c2ccccc2)n(-c2ccc(F)cc2)c1/C=C/[C@@H](O)C[C@@H](O)CC(=O)O (relative stereo) [Example 2, Sodium (±)-erythro-(E)-3,5-dihydroxy-7-[1'-(4"-fluorophenyl)-3'-(1"-methylethyl)-5'-phenyl-1H-pyrrol-2'-yl]hept-6-enoate] | 0.53 | –
1100 | CC[C@H](C)C(=O)O[C@H]1CCC=C2C=C[C@H](C)[C@H](CC[C@@H]3C[C@@H](O)CC(=O)O3)[C@H]21 [Compactin] | – | –
– | CC[C@H](C)C(=O)O[C@H]1C[C@@H](C)C=C2C=C[C@H](C)[C@H](CC[C@@H]3C[C@@H](O)CC(=O)O3)[C@H]21 [Mevinolin] | – | 720
